Test results from patent US12577206B2 (BRISTOL-MYERS SQUIBB COMPANY, priority 2020, dated 2026).
pEC50: −log10 of the molar value.

Columns and labels:
human FPR2 = target: T1, human FPR2 (Homo sapiens, UniProt P25090); assay: FPR2 cyclic adenosine monophosphate (cAMP) assay; assay type: cell-based; settings: CHO cells overexpressing human FPR2; forskolin 5 μM; inhibition of cAMP production; HTRF; read-out: hFPR2 cAMP2 EC50
T1 sequence (P25090 1-351): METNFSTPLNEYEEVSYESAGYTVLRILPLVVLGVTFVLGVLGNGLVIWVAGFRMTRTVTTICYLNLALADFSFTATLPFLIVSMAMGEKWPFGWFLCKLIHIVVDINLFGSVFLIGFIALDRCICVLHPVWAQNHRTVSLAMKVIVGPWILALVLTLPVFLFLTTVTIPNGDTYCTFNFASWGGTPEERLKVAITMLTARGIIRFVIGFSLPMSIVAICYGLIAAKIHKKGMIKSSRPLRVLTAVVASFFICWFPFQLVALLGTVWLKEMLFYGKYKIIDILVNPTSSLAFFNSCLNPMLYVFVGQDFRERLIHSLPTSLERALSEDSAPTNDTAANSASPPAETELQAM
Source text: (§1) N-formyl peptide receptors (FPRs) are a family of chemo attractant receptors that facilitate leukocyte response during inflammation. FPRs belong to the seven-transmembrane G protein-coupled receptor superfamily and are linked to inhibitory G-proteins (Gi). Three family members (FPR1, FPR2 and FPR3) have been identified in humans and are predominantly found in myeloid cells with varied distribution and have also been reported in multiple organs and tissues. After agonist binding, the FPRs activate a multitude of physiological pathways, such as intra cellular signaling transduction, Ca^2+ mobilization and transcription. The family interacts with a diverse set of ligands that includes proteins, polypeptides and fatty acid metabolites which activate both pro-inflammatory and pro-resolution downstream responses. FPR2 and FPR1 Cyclic Adenosine Monophosphate (cAMP) Assays were used to measure the in vitro activity of the compounds disclosed in this application.
(§2) FPR2 and FPR1 Cyclic Adenosine Monophosphate (cAMP) Assays. A mixture of forskolin (5 μM final for FPR2 or 10 μM final for FPR1) and IBMX (200 μM final) were added to 384-well Proxiplates (Perkin-Elmer) pre-dotted with test compounds in DMSO (1% final) at final concentrations in the range of 0.020 nM to 100 μM. Chinese Hamster Ovary cells (CHO) overexpressing human FPR1 or human FPR2 receptors were cultured in F-12 (Ham's) medium supplemented with 10% qualified FBS, 250 μg/mL zeocin and 300 μg/mL hygromycin (Life Technologies). Reactions were initiated by adding 2,000 human FPR2 cells per well or 4,000 human FPR1 cells per well in Dulbecco's PBS (with calcium and magnesium) (Life Technologies) supplemented with 0.1% BSA (Perkin-Elmer). The reaction mixtures were incubated for 30 min at rt. The level of intracellular cAMP was determined using the HTRF HiRange cAMP assay reagent kit (Cisbio) according to manufacturer's instruction. Solutions of cryptate conjugated anti-cAMP and d2 flurorophore-labeled cAMP were made in a supplied lysis buffer separately. Upon completion of the reaction, the cells were lysed with equal volume of the d2-cAMP solution and anti-cAMP solution. […] The potency and activity of a compound to inhibit cAMP production was then determined by fitting to a 4-parametric logistic equation from a plot of cAMP level versus compound concentrations.

human FPR1 = target: T2, human FPR1 (Homo sapiens, UniProt P21462); assay: FPR1 cyclic adenosine monophosphate (cAMP) assay; assay type: cell-based; settings: CHO cells overexpressing human FPR1; forskolin 10 μM; inhibition of cAMP production; HTRF; read-out: hFPR1 cAMP2 EC50
T2 sequence (P21462 1-350): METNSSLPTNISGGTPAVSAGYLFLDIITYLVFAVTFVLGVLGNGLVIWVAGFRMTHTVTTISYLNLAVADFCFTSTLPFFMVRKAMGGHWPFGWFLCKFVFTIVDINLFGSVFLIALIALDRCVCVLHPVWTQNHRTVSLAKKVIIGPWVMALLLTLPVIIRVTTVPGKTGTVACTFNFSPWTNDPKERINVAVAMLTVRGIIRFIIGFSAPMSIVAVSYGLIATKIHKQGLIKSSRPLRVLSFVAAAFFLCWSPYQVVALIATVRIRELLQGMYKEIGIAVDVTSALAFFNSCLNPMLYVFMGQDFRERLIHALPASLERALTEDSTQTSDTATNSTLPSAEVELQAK
Source text: as §1, §2

Row | Compound | pEC50 (human FPR2) | pEC50 (human FPR1)
1 | COc1cc(F)c(-c2c(NC(=O)c3ccc(OC(F)F)cc3)c(=O)n(-c3cccc(Cl)c3C)n2C)c(F)c1 [Example 37, N-[2-(3-chloro-2-methylphenyl)-5-(2,6-difluoro-4-methoxyphenyl)-1-methyl-3-oxo-2,3-dihydro-1H-pyrazol-4-yl]-4-(difluoromethoxy)benzamide] | 7.72 | < 5.00
2 | COc1cc(F)c(-c2c(NC(=O)c3ccc(Cl)cc3)c(=O)n(-c3ccc(Cl)cn3)n2C)c(F)c1 [Example 43, 4-chloro-N-[2-(5-chloropyridin-2-yl)-5-(2,6-difluoro-4-methoxyphenyl)-1-methyl-3-oxo-2,3-dihydro-1H-pyrazol-4-yl]benzamide] | 7.39 | < 5.00
3 | COc1cc(F)c(-c2c(NC(=O)c3ccc(OC(F)F)cc3)c(=O)n(-c3ccccn3)n2C)c(F)c1 [Example 44, N-[5-(2,6-difluoro-4-methoxyphenyl)-1-methyl-3-oxo-2-(pyridin-2-yl)-2,3-dihydro-1H-pyrazol-4-yl]-4-(difluoromethoxy)benzamide] | 7.80 | < 5.00
4 | COc1cc(F)c(-c2c(NC(=O)c3ccc(OC(F)F)cc3)c(=O)n(-c3cccc(C)n3)n2C)c(F)c1 [Example 46, N-[5-(2,6-difluoro-4-methoxyphenyl)-1-methyl-2-(6-methylpyridin-2-yl)-3-oxo-2,3-dihydro-1H-pyrazol-4-yl]-4-(difluoromethoxy)benzamide] | 7.66 | < 5.00
5 | COc1cc(F)c(-c2c(NC(=O)c3ccc(Cl)cc3)c(=O)n(-c3ccc(C)cn3)n2C)c(F)c1 [Example 48, 4-chloro-N-[5-(2,6-difluoro-4-methoxyphenyl)-1-methyl-2-(5-methylpyridin-2-yl)-3-oxo-2,3-dihydro-1H-pyrazol-4-yl]benzamide] | 7.37 | < 5.00
6 | COc1cc(F)c(-c2c(NC(=O)c3ccc(OC(F)F)cc3)c(=O)n(-c3ccc(C)cn3)n2C)c(F)c1 [Example 49, N-[5-(2,6-difluoro-4-methoxyphenyl)-1-methyl-2-(5-methylpyridin-2-yl)-3-oxo-2,3-dihydro-1H-pyrazol-4-yl]-4-(difluoromethoxy)benzamide] | 7.26 | 5.17
7 | COc1cc(F)c(-c2c(NC(=O)c3ccc(OC(F)(F)F)cc3)c(=O)n(-c3ccc(C)cn3)n2C)c(F)c1 [Example 50, N-[5-(2,6-difluoro-4-methoxyphenyl)-1-methyl-2-(5-methylpyridin-2-yl)-3-oxo-2,3-dihydro-1H-pyrazol-4-yl]-4-(trifluoromethoxy)benzamide] | 7.74 | 5.89
8 | COc1cc(F)c(-c2c(NC(=O)c3ccc(OC(F)F)cc3)c(=O)n(-c3ccc(-c4ccccc4)cn3)n2C)c(F)c1 [Example 51, N-[5-(2,6-difluoro-4-methoxyphenyl)-1-methyl-3-oxo-2-(5-phenylpyridin-2-yl)-2,3-dihydro-1H-pyrazol-4-yl]-4-(difluoromethoxy)benzamide] | 7.74 | 5.96
9 | COc1cc(F)c(-c2c(NC(=O)c3ccc(C4CC4)cc3)c(=O)n(-c3ccc(C4CC4)cn3)n2C)c(F)c1 [Example 53, 4-cyclopropyl-N-[2-(5-cyclopropylpyridin-2-yl)-5-(2,6-difluoro-4-methoxyphenyl)-1-methyl-3-oxo-2,3-dihydro-1H-pyrazol-4-yl]benzamide] | 7.23 | 6.21
10 | COc1cc(F)c(-c2c(NC(=O)c3ccc(OC(F)F)cc3)c(=O)n(-c3ccc(C#N)cn3)n2C)c(F)c1 [Example 54, N-[2-(5-cyanopyridin-2-yl)-5-(2,6-difluoro-4-methoxyphenyl)-1-methyl-3-oxo-2,3-dihydro-1H-pyrazol-4-yl]-4-(difluoromethoxy)benzamide] | 7.72 | 5.48

Molecules with a higher pEC50 (human FPR2), results first:

Row | pEC50 (human FPR2) | pEC50 (human FPR1) | Compound
11 | 7.85 | 5.52 | COc1cc(F)c(-c2c(NC(=O)c3ccc(OC(F)F)cc3)c(=O)n(-c3cccc(Cl)n3)n2C)c(F)c1 [Example 39, N-[2-(6-chloropyridin-2-yl)-5-(2,6-difluoro-4-methoxyphenyl)-1-methyl-3-oxo-2,3-dihydro-1H-pyrazol-4-yl]-4-(difluoromethoxy)benzamide]
12 | 8.05 | 6.57 | COc1cc(F)c(-c2c(NC(=O)c3ccc(Cl)cc3)c(=O)n(-c3ccc(Cl)cc3)n2C)c(F)c1 [Example 36, 4-chloro-N-[2-(4-chlorophenyl)-5-(2,6-difluoro-4-methoxyphenyl)-1-methyl-3-oxo-2,3-dihydro-1H-pyrazol-4-yl]benzamide]
13 | 8.05 | 6.72 | COc1cc(F)c(-c2c(NC(=O)c3ccc(OC(F)(F)F)cc3)c(=O)n(-c3ccc(C4CC4)cn3)n2C)c(F)c1 [Example 52, N-[2-(5-cyclopropylpyridin-2-yl)-5-(2,6-difluoro-4-methoxyphenyl)-1-methyl-3-oxo-2,3-dihydro-1H-pyrazol-4-yl]-4-(trifluoromethoxy)benzamide]
14 | 8.10 | 5.02 | COc1cc(F)c(-c2c(NC(=O)c3ccc(OC(F)F)cc3)c(=O)n(-c3ncccc3C#N)n2C)c(F)c1 [Example 55, N-[2-(3-cyanopyridin-2-yl)-5-(2,6-difluoro-4-methoxyphenyl)-1-methyl-3-oxo-2,3-dihydro-1H-pyrazol-4-yl]-4-(difluoromethoxy)benzamide]
15 | 8.15 | 5.68 | COc1cc(F)c(-c2c(NC(=O)c3ccc(OC(F)(F)F)cc3)c(=O)n(-c3ncccc3Cl)n2C)c(F)c1 [Example 41, N-[2-(3-chloropyridin-2-yl)-5-(2,6-difluoro-4-methoxyphenyl)-1-methyl-3-oxo-2,3-dihydro-1H-pyrazol-4-yl]-4-(trifluoromethoxy)benzamide]
16 | 8.22 | 5.77 | COc1cc(F)c(-c2c(NC(=O)c3ccc(OC(F)(F)F)cc3)c(=O)n(-c3cccc(Cl)c3Cl)n2C)c(F)c1 [Example 35, N-[2-(2,3-dichlorophenyl)-5-(2,6-difluoro-4-methoxyphenyl)-1-methyl-3-oxo-2,3-dihydro-1H-pyrazol-4-yl]-4-(trifluoromethoxy)benzamide]
17 | 8.22 | 5.55 | COc1cc(F)c(-c2c(NC(=O)c3ccc(OC(F)F)cc3)c(=O)n(-c3cccc(C4CC4)n3)n2C)c(F)c1 [Example 45, N-[2-(6-cyclopropylpyridin-2-yl)-5-(2,6-difluoro-4-methoxyphenyl)-1-methyl-3-oxo-2,3-dihydro-1H-pyrazol-4-yl]-4-(difluoromethoxy)benzamide]
18 | 8.22 | 6.34 | COc1cc(F)c(-c2c(NC(=O)c3ccc(OC(F)F)cc3)c(=O)n(-c3ccc(C4CC4)cn3)n2C)c(F)c1 [Example 47, N-[2-(5-cyclopropylpyridin-2-yl)-5-(2,6-difluoro-4-methoxyphenyl)-1-methyl-3-oxo-2,3-dihydro-1H-pyrazol-4-yl]-4-(difluoromethoxy)benzamide]
19 | 8.40 | 5.72 | COc1cc(F)c(-c2c(NC(=O)c3ccc(OC(F)F)cc3)c(=O)n(-c3cccc(Cl)c3Cl)n2C)c(F)c1 [Example 34, N-[2-(2,3-dichlorophenyl)-5-(2,6-difluoro-4-methoxyphenyl)-1-methyl-3-oxo-2,3-dihydro-1H-pyrazol-4-yl]-4-(difluoromethoxy)benzamide]
